The source of these data is PubChem BioAssay AID1117330.

As usually defined, the IC50 is the concentration that gives 50% inhibition.

Activity calls are given as the source filed them. The rule behind the calls is not given here. A value given as a limit tells only on which side of the number the result lay.

This experiment concerns HT-29 viability, CellTiter-Glo luminescence. Kind of experiment: cytotoxicity toward HT-29 cells – cell-based, CellTiter-Glo luminescence, IC50, dose response (AID 1117330).
As to `O=C1[O][Bi][O]c2ccccc21`, the IC50 was > 20 µM (inactive).
Then `Cc1ccc([N+](=O)[O-])[c]2c1[O][Hg]2`, with 1.44 µM; and `CC(=O)[O][Hg][c]1ccccc1`, with 0.799 µM.
On to `O=C(O)C1(C(=O)O)CCC1.[NH2-].[NH2-].[Pt+2]`, for which the IC50 is > 20 µM (inactive).
Then `OCCN1CCN(CC/C=C2/c3ccccc3Sc3ccc(C(F)(F)F)cc32)CC1`, with 1.81 µM; and `CCCCCCCCCCCCCC[N+](C)(C)C`, with 1.32 µM.
